Assay: Shake-flask solubility with spectrophotometric measurement in aqueous DES mixtures
Type: physicochemical
Conditions: for Increase in the solubility compared to the neat DES: 25 °C
Method: In order to determine the solubility of the three studied phenolic acids in deep eutectic solvents, a very well-established shake-flask method coupled with spectrophotometric measurements was utilized. The initial procedure involved the preparation of various DESs, which was conducted by mixing their HBA and HBD counterparts in a glass vessel and heating the composition until the formation of a transparent, uniform liquid. […] For additional measurements, the DESs were mixed with water in varying proportions, creating aqueous DES systems. Saturated solutions of CAF, SYR, and COU were obtained by adding excess amounts of these compounds to test tubes containing either a neat deep eutectic solvent or its aqueous solution. Such samples were placed in the Orbital Shaker Incubator ES-20/60 from Biosan (Riga, Latvia) and heated for 24 h at 25 °C, 30 °C, 35 °C, and 40 °C (±0.1 °C) with simultaneous mixing at 60 rpm. Before measurements, the samples were filtered using a PTFE syringe filter from Qpore (Dallas, TX, USA) with a 0.22 μm pore size. In order to avoid possible precipitation of the saturated solutions at decreased temperatures, the test tubes, syringes, pipette tips, and filters were kept at a temperature identical to that of the samples. The spectrophotometric measurements required the preparation of calibration curves for the three APIs. This involved the preparation of a stock solution of each compound in methanol, which was later successfully diluted, and the obtained solutions of varying concentrations were measured using an A360 spectrophotometer from AOE Instruments (Shanghai, China). The wavelength range was set to 200-500 nm, and the resolution was 1 nm. The analytical wavelengths were determined to be 324 nm for caffeic acid, 273 nm for syringic acid, and 308 nm for p-coumaric acid. The final regression equations, obtained after averaging three distinct sets of measurements, are collected in Table 2 together with determination coefficients and limits of detection (LOD) and quantification (LOQ) for the calibration curves. The measurements of the samples were conducted with the same spectrophotometer and identical settings. Methanol was used for the dilution of the samples so that they could remain within the linearity range of the method. Complete spectra of the samples were recorded, but for the solubility determination, the absorbance values at a specific analytical wavelength were considered. These values were combined with the corresponding regression equations of the calibration curves and served for the calculation of the concentration of the three phenolic acids in the studied samples. The densities of such samples were also measured, and for this task 1 mL of each sample was weighed to a precision of 0.1 mg using an AS 110 R2.PLUS analytical balance from […] (Radom, Poland). The obtained densities enabled the calculation of mole fractions of CAF, SYR, and COU dissolved in the studied DESs. For each considered system, three distinct measurements were conducted, and the results were averaged.

- Mole fraction solubility (Bet – TEG 1:2 + water, x*DES 0.9, 30°C): 0.0551±0.0005 mole fraction
- Mole fraction solubility (Bet – TEG 1:2 + water, x*DES 0.9, 35°C): 0.0682±0.0014 mole fraction
- Mole fraction solubility (Bet – TEG 1:2 + water, x*DES 0.9, 40°C): 0.0796±0.0008 mole fraction
- Mole fraction solubility (Bet – TEG 1:2, x*DES 1.0 (neat DES), 25°C): 0.0474±0.0003 mole fraction
- Mole fraction solubility (Bet – TEG 1:2, x*DES 1.0 (neat DES), 30°C): 0.0541±0.0004 mole fraction
- Mole fraction solubility (Bet – TEG 1:2, x*DES 1.0 (neat DES), 35°C): 0.0657±0.0011 mole fraction
- Mole fraction solubility (Bet – TEG 1:2, x*DES 1.0 (neat DES), 40°C): 0.0778±0.0009 mole fraction
- Increase in the solubility compared to the neat DES (Bet-TEG 1:2, x*DES = 0.9 (xwater = 0.1)): 3%
- Mole fraction solubility (ChCl – TEG 1:2 + water, x*DES 0.1, 25°C): 0.0069±0.0001 mole fraction
- Mole fraction solubility (ChCl – TEG 1:2 + water, x*DES 0.1, 30°C): 0.0093±0.0001 mole fraction
- Mole fraction solubility (ChCl – TEG 1:2 + water, x*DES 0.1, 35°C): 0.0131±0.0001 mole fraction
- Mole fraction solubility (ChCl – TEG 1:2 + water, x*DES 0.1, 40°C): 0.0174±0.0002 mole fraction
- Mole fraction solubility (ChCl – TEG 1:2 + water, x*DES 0.2, 25°C): 0.0122±0.0001 mole fraction
- Mole fraction solubility (ChCl – TEG 1:2 + water, x*DES 0.2, 30°C): 0.0158±0.0001 mole fraction
- Mole fraction solubility (ChCl – TEG 1:2 + water, x*DES 0.2, 35°C): 0.0218±0.0001 mole fraction
- Mole fraction solubility (ChCl – TEG 1:2 + water, x*DES 0.2, 40°C): 0.0305±0.0002 mole fraction
- Mole fraction solubility (ChCl – TEG 1:2 + water, x*DES 0.3, 25°C): 0.0186±0.0001 mole fraction
- Mole fraction solubility (ChCl – TEG 1:2 + water, x*DES 0.3, 30°C): 0.0249±0.0001 mole fraction
- Mole fraction solubility (ChCl – TEG 1:2 + water, x*DES 0.3, 35°C): 0.0347±0.0003 mole fraction
- Mole fraction solubility (ChCl – TEG 1:2 + water, x*DES 0.3, 40°C): 0.0476±0.0003 mole fraction
- Mole fraction solubility (ChCl – TEG 1:2 + water, x*DES 0.4, 25°C): 0.0254±0.0003 mole fraction
- Mole fraction solubility (ChCl – TEG 1:2 + water, x*DES 0.4, 30°C): 0.0347±0.0004 mole fraction
- Mole fraction solubility (ChCl – TEG 1:2 + water, x*DES 0.4, 35°C): 0.0466±0.0004 mole fraction
- Mole fraction solubility (ChCl – TEG 1:2 + water, x*DES 0.4, 40°C): 0.0643±0.0006 mole fraction
- Mole fraction solubility (ChCl – TEG 1:2 + water, x*DES 0.5, 25°C): 0.0324±0.0002 mole fraction
- Mole fraction solubility (ChCl – TEG 1:2 + water, x*DES 0.5, 30°C): 0.0446±0.0004 mole fraction
- Mole fraction solubility (ChCl – TEG 1:2 + water, x*DES 0.5, 35°C): 0.0618±0.0006 mole fraction
- Mole fraction solubility (ChCl – TEG 1:2 + water, x*DES 0.5, 40°C): 0.0822±0.0010 mole fraction
- Mole fraction solubility (ChCl – TEG 1:2 + water, x*DES 0.6, 25°C): 0.0401±0.0004 mole fraction
- Mole fraction solubility (ChCl – TEG 1:2 + water, x*DES 0.6, 30°C): 0.0524±0.0005 mole fraction
- Mole fraction solubility (ChCl – TEG 1:2 + water, x*DES 0.6, 35°C): 0.0731±0.0007 mole fraction
- Mole fraction solubility (ChCl – TEG 1:2 + water, x*DES 0.6, 40°C): 0.0992±0.0012 mole fraction
- Mole fraction solubility (ChCl – TEG 1:2 + water, x*DES 0.7, 25°C): 0.0475±0.0003 mole fraction
- Mole fraction solubility (ChCl – TEG 1:2 + water, x*DES 0.7, 30°C): 0.0628±0.0004 mole fraction
- Mole fraction solubility (ChCl – TEG 1:2 + water, x*DES 0.7, 35°C): 0.0871±0.0005 mole fraction
- Mole fraction solubility (ChCl – TEG 1:2 + water, x*DES 0.7, 40°C): 0.1214±0.0012 mole fraction
- Mole fraction solubility (ChCl – TEG 1:2 + water, x*DES 0.8, 25°C): 0.0541±0.0003 mole fraction
- Mole fraction solubility (ChCl – TEG 1:2 + water, x*DES 0.8, 30°C): 0.0699±0.0006 mole fraction
- Mole fraction solubility (ChCl – TEG 1:2 + water, x*DES 0.8, 35°C): 0.1009±0.0006 mole fraction
- Mole fraction solubility (ChCl – TEG 1:2 + water, x*DES 0.8, 40°C): 0.1351±0.0013 mole fraction
- Mole fraction solubility (ChCl – TEG 1:2 + water, x*DES 0.9, 25°C): 0.0550 mole fraction
- Mole fraction solubility (ChCl – TEG 1:2 + water, x*DES 0.9, 25°C, listed as syryngic acid): 0.0550±0.0005 mole fraction
- Mole fraction solubility (ChCl – TEG 1:2 + water, x*DES 0.9, 30°C): 0.0718±0.0005 mole fraction
- Mole fraction solubility (ChCl – TEG 1:2 + water, x*DES 0.9, 35°C): 0.1018±0.0008 mole fraction
- Mole fraction solubility (ChCl – TEG 1:2 + water, x*DES 0.9, 40°C): 0.1373±0.0011 mole fraction
- Mole fraction solubility (ChCl – TEG 1:2, x*DES 1.0 (neat DES), 25°C): 0.0515±0.0004 mole fraction
- Mole fraction solubility (ChCl – TEG 1:2, x*DES 1.0 (neat DES), 30°C): 0.0660±0.0003 mole fraction
- Mole fraction solubility (ChCl – TEG 1:2, x*DES 1.0 (neat DES), 35°C): 0.0917±0.0006 mole fraction
- Mole fraction solubility (ChCl – TEG 1:2, x*DES 1.0 (neat DES), 40°C): 0.1234±0.0013 mole fraction
- Increase in the solubility compared to the neat DES (ChCl-TEG 1:2, x*DES = 0.9 (xwater = 0.1)): 7%
- Solubility increase between 25 °C and 40 °C (neat DES (x*DES = 1.0) involving betaine (Bet-TEG 1:2)): 164%
- Solubility increase between 25 °C and 40 °C (neat DES (x*DES = 1.0) with choline chloride (ChCl-TEG 1:2)): 240%
SMILES: COc1cc(C(=O)O)cc(OC)c1O [syringic acid, 4-hydroxy-3,5-dimethoxybenzoic acid]

From paper PMC12564265, “Navigating the Deep Eutectic Solvent Landscape: Experimental and Machine Learning Solubility Explorations of Syringic, p-Coumaric, and Caffeic Acids” (International Journal of Molecular Sciences, 2025)
